Assay results as given in BindingDB's records for doi:10.1021/jm801427r (Universita Di Pisa, 2009).

Each compound was assayed against T1, Adenosine deaminase (Bos taurus, UniProt P56658) (assay: ADA Enzyme Inhibition Assay). Settings: pH 7.2; 30 °C.
T1 sequence (P56658 whole entry): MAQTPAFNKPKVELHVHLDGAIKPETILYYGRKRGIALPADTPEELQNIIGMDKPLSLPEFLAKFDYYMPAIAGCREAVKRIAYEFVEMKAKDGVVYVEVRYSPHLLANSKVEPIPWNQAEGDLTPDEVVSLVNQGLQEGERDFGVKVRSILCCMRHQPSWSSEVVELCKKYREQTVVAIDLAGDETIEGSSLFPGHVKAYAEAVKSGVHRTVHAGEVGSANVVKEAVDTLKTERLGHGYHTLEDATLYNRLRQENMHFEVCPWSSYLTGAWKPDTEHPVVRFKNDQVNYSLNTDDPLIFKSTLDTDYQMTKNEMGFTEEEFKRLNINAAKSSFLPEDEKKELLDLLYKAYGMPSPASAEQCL
Description: The activity of ADA was determined spectrophotometrically by monitoring the change in absorbance at 262 nm, due to the deamination of adenosine catalyzed by the enzyme. The change in adenosine concentration per min was determined using a Beckman DU-64 kinetics software program (Solf Pack TM Module). To correct for the background change in absorption, a reference blank containing all the assay components except the substrate was prepared. Each inhibitor concentration was tested in triplicate. The IC50 values were determined by linear regression analysis of dose-response curves. The Ki values were calculated from IC50 values by means of the Cheng and Prusoff.

| Ki [nM] | Structure (SMILES) |
| --- | --- |
| 12.7 | O=C(Nc1ccc(Cn2cc3c(=O)[nH]cnc3n2)cc1)c1ccccc1 [N-[4-({4-oxo-2H,4H,5H-pyrazolo[3,4-d]pyrimidin-2-yl}methyl)phenyl]benzamide] |
| 2.42 | O=C(Nc1ccccc1)Nc1ccc(Cn2cc3c(=O)[nH]cnc3n2)cc1 [3-[4-({4-oxo-2H,4H,5H-pyrazolo[3,4-d]pyrimidin-2-yl}methyl)phenyl]-1-phenylurea] |
| 1.15 | O=C(Nc1ccc(F)cc1)Nc1ccc(Cn2cc3c(=O)[nH]cnc3n2)cc1 [1-(4-fluorophenyl)-3-[4-({4-oxo-2H,4H,5H-pyrazolo[3,4-d]pyrimidin-2-yl}methyl)phenyl]urea] |
| 108 | O=C(Nc1ccc(Cn2cc3c(=O)[nH]cnc3n2)cc1)Nc1ccc(OCc2ccccc2)cc1 [1-[4-(benzyloxy)phenyl]-3-[4-({4-oxo-2H,4H,5H-pyrazolo[3,4-d]pyrimidin-2-yl}methyl)phenyl]urea] |
| 0.16 | O=C(Nc1ccc(Cn2cc3c(=O)[nH]cnc3n2)cc1)Nc1ccc(C(F)(F)F)cc1 [3-[4-({4-oxo-2H,4H,5H-pyrazolo[3,4-d]pyrimidin-2-yl}methyl)phenyl]-1-[4-(trifluoromethyl)phenyl]urea] |
| 15.6 | COc1ccc(C(=O)Nc2ccc(Cn3cc4c(=O)[nH]cnc4n3)cc2)cc1 [4-methoxy-N-[4-({4-oxo-2H,4H,5H-pyrazolo[3,4-d]pyrimidin-2-yl}methyl)phenyl]benzamide] |
| 85.7 | O=C(NCc1ccccc1)Nc1ccc(Cn2cc3c(=O)[nH]cnc3n2)cc1 [1-benzyl-3-[4-({4-oxo-2H,4H,5H-pyrazolo[3,4-d]pyrimidin-2-yl}methyl)phenyl]urea] |
| 0.96 | O=C(Nc1ccc(Cn2cc3c(=O)[nH]cnc3n2)cc1)c1ccc(F)cc1 [4-fluoro-N-[4-({4-oxo-2H,4H,5H-pyrazolo[3,4-d]pyrimidin-2-yl}methyl)phenyl]benzamide] |
| 2.01 | CN(C)c1ccc(NC(=O)Nc2ccc(Cn3cc4c(=O)[nH]cnc4n3)cc2)cc1 [1-[4-(dimethylamino)phenyl]-3-[4-({4-oxo-2H,4H,5H-pyrazolo[3,4-d]pyrimidin-2-yl}methyl)phenyl]urea] |
| 28.3 | COc1ccc(NC(=O)Nc2ccc(Cn3cc4c(=O)[nH]cnc4n3)cc2)cc1 [1-(4-methoxyphenyl)-3-[4-({4-oxo-2H,4H,5H-pyrazolo[3,4-d]pyrimidin-2-yl}methyl)phenyl]urea] |
| 0.51 | O=C(Nc1ccc(Cn2cc3c(=O)[nH]cnc3n2)cc1)c1ccc(C(F)(F)F)cc1 [N-[4-({4-oxo-2H,4H,5H-pyrazolo[3,4-d]pyrimidin-2-yl}methyl)phenyl]-4-(trifluoromethyl)benzamide] |
| 1.14 | CCCCCC[C@H]([C@H](C)O)n1cnc2c(N)ncnc21 [(2S,3R)-3-(6-amino-9H-purin-9-yl)nonan-2-ol] |

| Structure (SMILES) | Ki [nM] |
| --- | --- |
| O=C(Cc1ccccc1)Nc1ccc(Cn2cc3c(=O)[nH]cnc3n2)cc1 [N-[4-({4-oxo-2H,4H,5H-pyrazolo[3,4-d]pyrimidin-2-yl}methyl)phenyl]-2-phenylacetamide] | 47.9 |
| O=C(Nc1ccc(Cc2ccccc2)cc1)Nc1ccc(Cn2cc3c(=O)[nH]cnc3n2)cc1 [1-(4-benzylphenyl)-3-[4-({4-oxo-2H,4H,5H-pyrazolo[3,4-d]pyrimidin-2-yl}methyl)phenyl]urea] | 186 |
